According to PMC11927960, “Multiparameter ranking of carbazoles for anti-trypanosome lead discovery” (Frontiers in drug discovery, 2024):
≈ marks a conversion by molar mass, not a printed value.

Legend:
[1] = system: T. brucei Lister427; test: Trypanosome proliferation inhibition assay (SYBR Green, 48 h); format: cell-based; details: Trypanosoma brucei; continuous exposure 48 h, 4 × 10^3 trypanosomes/mL
Experimental: Trypanosome proliferation inhibition assays
T. b. Lister 427 or T. b. AnTat1.1 were seeded at 4 × 10^3 cells/mL or 2 × 10^3 cells/mL (in 50 μL culture medium), respectively, into 384-well black plate (Greiner; Frickenhausen, Germany) and treated with serial dilutions of each compound in duplicate. Plates were incubated for 48 h at 37 °C and 5% CO2. […] Fluorescence in lysates was quantitated with a fluorometer (Fluoroskan Ascent Microplate Fluorometer, Thermo Scientific) (100 ms; ex: 485 nm, em: 538 nm). Each experiment was performed in triplicate.

[2] = Human liver microsome intrinsic clearance (HLM Clint); format: in vitro ADME; details: human liver microsomes, 37 °C
Experimental: Intrinsic metabolic clearance.
The test compound was added to a final concentration of 1 μM, and the residual concentrations were tracked with LC-MS/MS at defined time points.

[3] = Thermodynamic aqueous solubility (pH 7.4); format: physicochemical; details: aqueous buffer, thermodynamic from solid, phosphate buffer pH 7.4, 25 °C, 20–24 h
Experimental: Thermodynamic aqueous solubility (pH 7.4).
Various amounts of compounds in powdered form were added to phosphate buffer (0.1 M, pH 7.4). Suspensions were kept on a shaker at 25 °C for 20–24 h. After centrifugation, compounds in the supernatant were quantified using LC-MS/MS.

[4] = system: T. brucei Lister427; test: Delayed trypanocidal assay (6 h exposure, wash-off); format: cell-based, Trypanosoma brucei; details: starting cell density 1 × 10^5/mL instead of 5 × 10^5/mL
[5] = system: T. brucei AnTat1.1; test: Treatment of chronic HAT in a mouse model of disease; format: in vivo, Trypanosoma brucei in Swiss-Webster mice; details: for Mean parasitemia on day 7 post-infection: CBL0174 60 mg/kg, CBL0187 50 mg/kg orally from day 3, vehicle 1.64 × 10^7; for Outcome in chronic HAT mouse model: oral, CBL0137 40 mg/kg days 2-5, 8-11, 14, 15, CBL0174 60 mg/kg and CBL0187 50 mg/kg days 3-9
Experimental: Mice were each infected intraperitoneally with Trypanosoma brucei AnTat1.1 (10^4). […] (B) CBL0174 and CBL0187: Groups V, B, and D were given vehicle, CBL0174 (60 mg/kg) and CBL0187 (50 mg/kg), respectively, from day 3 through 9. Different shapes represent individual mice, and horizontal lines in each group denote mean parasitemia determined with a hemocytometer. UND = undetectable; DPI = days post-infection.
Treatment of chronic HAT in a mouse model of disease
Drug efficacy studies in a mouse model of HAT were conducted following recommendations in the “Guide for the Care and Use of Laboratory Animals” of the National Institutes of Health. The protocol was approved by the Institutional Animal Care and Use Committee (IACUC) at the University of Georgia. After the study, the mice were euthanized by CO2 asphyxiation followed by incision to form a bilateral pneumothorax, as approved by the American Veterinary Association.
Female Swiss-Webster mice (20–25 g; 8–10 weeks old) were acclimatized for 1 week before the commencement of the study. […] Parasites in blood collected from a tail venipuncture and diluted 8-fold in RBC lysis buffer (Qiagen) were monitored with a hemocytometer (Neubauer Bright-line). During the study, mice with parasitemia above 10^8 trypanosomes/mL were euthanized for humane reasons. Mice without parasitemia for 90 days were considered cured.

[6] = in vivo; details: both sexes, mouse, oral, Swiss Webster mice, 10 consecutive days, read-out: Repeated maximum tolerated dose (rMTD)
Experimental: Maximum tolerated dose of compounds in mice.
To determine a single maximum tolerated dose (sMTD), male and female Swiss Webster mice were first given a single 50 mg/kg dose of compound formulated in N-methyl-2-pyrrolidone (10% v/v) and 0.2% hydroxypropyl methylcellulose (90% v/v). Mice were monitored daily for up to 7 days post-administration for overall condition using a Total Condition Scoring (TCS) system (Supplementary Table S1) and body weight changes. If greater than 20% body weight loss was recorded, the dose was lowered in two-fold amounts in subsequent tests. […] When no toxicity was observed, sMTD values were utilized to determine the repetitive maximum tolerated dose (rMTD). Male and female Swiss-Webster mice were treated with sMTD for 10 consecutive days. […] If adverse effects were recorded, the daily doses were reduced two-fold in follow-up work. At the end of the study, mice were euthanized by CO2 asphyxiation followed by cervical dislocation.

[7] = Brain accumulation (brain to plasma concentration ratio); details: Swiss Webster, mouse
Experimental: The plasma concentration and tissue distribution of drugs were determined by Absorption Systems. […] Blood and brain samples were obtained at 1, 2, 4, and 6 h post-dosing, and plasma and brain concentrations of the drug were determined using LC-MS/MS. Stock standards for calibration were prepared in a matrix comprising equal volumes of water and mouse blood containing K2-EDTA as an anticoagulant. Working solutions were prepared in 50:50 acetonitrile–water and added to the matrix to final concentrations of 1,000, 500, 100, 50.0, 10.0, 5.00, 1.00, and 0.500 ng/mL for all compounds. Pharmacokinetic parameters were determined using Phoenix WinNonlin (v8.0) software with sparse sampling. Maximum plasma concentration (Cmax) and the time to reach maximum plasma concentration (tmax) were determined from the four data points. The area under the time concentration curve (AUClast) was calculated using the linear trapezoidal rule with calculation to a 6-h data point. Plasma half-life (t1/2) was calculated from 0.693/slope of the terminal elimination phase. Samples below the limit of detection (0.500 ng/mL) were treated as 0. […]
or CBL0187, respectively. Blood and brain samples were obtained at 1, 2, 4, and 6 h post-dosing, and plasma and brain concentrations of the carbazoles were determined using LC-MS/MS. (A) Brain tissue concentrations of curaxins at different time points (B) Ratios of […]
male and female Swiss-wester mice. […]

Row | SMILES | EC50 [1] | microsomal CLint at 1 μM [2] | solubility [3] | DTC25 T. brucei Lister427 (value in parenthesis) [4] | DTC50 T. brucei Lister427 (value in parenthesis) [4] | DTC90 T. brucei Lister427 (value in parenthesis) [4] | Mean parasitemia on day 7 post-infection [5] | Outcome in chronic HAT mouse model [5] | MTD at 10 days [6] | Kp ([7]; brain, oral) | Kp ([7]; in vivo, po)
1 | CC(=O)c1cc2c3cc(C(C)=O)c(O)cc3n(CCCN(C)C)c2cc1O [CBL0174, 1-[6-acetyl-9-[3-(dimethylamino)propyl]-2,7-dihydroxy-carbazol-3-yl]ethanone] | 21 nM | 4.89 µL/min/mg | 773 µM (≈ 285 µg/mL) | 60 nM | 122 nM | 513 nM | 8.22 × 10^7 ± 6.64 × 10^6 trypanosomes/mL | failed to control parasitemia | 60 mg/kg | 26.9 | 27.9
2 | CC(=O)c1cc2c3cc(C(C)=O)c(O)cc3n(CCNC(C)C)c2cc1O [CBL0187, 1-[6-acetyl-2,7-dihydroxy-9-[2-(isopropylamino)ethyl]carbazol-3-yl]ethanone] | 8.9 nM | 12.4 µL/min/mg | 36.3 µM (≈ 13.4 µg/mL) | 41 nM | 98 nM | 592 nM | 8.99 × 10^7 ± 2.43 × 10^7 trypanosomes/mL | failed to control parasitemia | 50 mg/kg | 15.9 | 
